Results on three compounds are retold here after BindingDB's records for doi:10.1007/pl00005056 (Smithkline Beecham Pharmaceuticals, 1997).

In test [1] the target is 5-hydroxytryptamine receptor 2A (Homo sapiens, UniProt P28223).
Test [2] concerns the target 5-hydroxytryptamine receptor 6 (Homo sapiens, UniProt P50406).
The target in test [3] is 5-hydroxytryptamine receptor 1B (Homo sapiens, UniProt P28222).
Test [4] deals with 5-hydroxytryptamine receptor 1D (Homo sapiens, UniProt P28221).
For test [5], the target named is 5-hydroxytryptamine receptor 2B (Homo sapiens, UniProt P41595).
The target in test [6] is 5-hydroxytryptamine receptor 7 (Homo sapiens, UniProt P34969).
Test [7] addresses 5-hydroxytryptamine receptor 1E (Homo sapiens, UniProt P28566).
Test [8] deals with T1, 5-hydroxytryptamine receptor 1F (Homo sapiens, UniProt P30939).
T1 sequence (P30939 whole entry): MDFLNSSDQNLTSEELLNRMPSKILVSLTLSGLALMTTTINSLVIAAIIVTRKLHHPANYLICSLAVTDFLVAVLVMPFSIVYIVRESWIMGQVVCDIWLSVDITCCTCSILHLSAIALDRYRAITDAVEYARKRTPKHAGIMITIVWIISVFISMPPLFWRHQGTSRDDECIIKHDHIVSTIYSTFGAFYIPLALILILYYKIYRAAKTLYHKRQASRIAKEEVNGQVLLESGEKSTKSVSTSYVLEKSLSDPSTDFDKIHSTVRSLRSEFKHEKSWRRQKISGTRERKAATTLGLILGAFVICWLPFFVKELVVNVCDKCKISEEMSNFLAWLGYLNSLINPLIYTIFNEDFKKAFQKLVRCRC

The target in test [9] is T2, 5-hydroxytryptamine receptor 2C (Homo sapiens, UniProt P28335).
T2 sequence (P28335 whole entry): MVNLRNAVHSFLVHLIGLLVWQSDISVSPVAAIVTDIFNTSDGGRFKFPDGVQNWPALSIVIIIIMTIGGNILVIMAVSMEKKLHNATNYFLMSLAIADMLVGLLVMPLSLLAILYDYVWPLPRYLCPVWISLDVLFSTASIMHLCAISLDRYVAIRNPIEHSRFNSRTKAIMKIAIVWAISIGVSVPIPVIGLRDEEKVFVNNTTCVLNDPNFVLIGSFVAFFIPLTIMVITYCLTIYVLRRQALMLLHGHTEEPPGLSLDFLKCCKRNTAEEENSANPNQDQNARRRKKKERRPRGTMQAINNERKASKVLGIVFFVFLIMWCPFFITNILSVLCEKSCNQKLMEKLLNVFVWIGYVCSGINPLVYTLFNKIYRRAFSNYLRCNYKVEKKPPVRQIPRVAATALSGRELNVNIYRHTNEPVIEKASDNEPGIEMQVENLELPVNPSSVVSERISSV

The target in test [10] is T3, 5-hydroxytryptamine receptor 1A (Homo sapiens, UniProt P08908).
T3 sequence (P08908 whole entry): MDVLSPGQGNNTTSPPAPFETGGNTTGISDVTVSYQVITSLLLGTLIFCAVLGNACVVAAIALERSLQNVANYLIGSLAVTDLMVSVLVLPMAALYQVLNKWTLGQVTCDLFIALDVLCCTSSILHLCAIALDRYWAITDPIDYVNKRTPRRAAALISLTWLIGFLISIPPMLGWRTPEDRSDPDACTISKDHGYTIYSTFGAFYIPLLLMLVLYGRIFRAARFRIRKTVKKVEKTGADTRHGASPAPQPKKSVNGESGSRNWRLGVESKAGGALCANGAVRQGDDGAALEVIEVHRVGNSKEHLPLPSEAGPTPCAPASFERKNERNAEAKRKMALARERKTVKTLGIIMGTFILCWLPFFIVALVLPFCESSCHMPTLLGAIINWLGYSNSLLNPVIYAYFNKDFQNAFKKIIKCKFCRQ

Where “and” joins values, the source holds several entries; their conditions need not be identical. Identical values can stand only once. Bounds are passed on as bounds.

5-hydroxytryptamine receptor 2B, sequence (P41595 whole entry): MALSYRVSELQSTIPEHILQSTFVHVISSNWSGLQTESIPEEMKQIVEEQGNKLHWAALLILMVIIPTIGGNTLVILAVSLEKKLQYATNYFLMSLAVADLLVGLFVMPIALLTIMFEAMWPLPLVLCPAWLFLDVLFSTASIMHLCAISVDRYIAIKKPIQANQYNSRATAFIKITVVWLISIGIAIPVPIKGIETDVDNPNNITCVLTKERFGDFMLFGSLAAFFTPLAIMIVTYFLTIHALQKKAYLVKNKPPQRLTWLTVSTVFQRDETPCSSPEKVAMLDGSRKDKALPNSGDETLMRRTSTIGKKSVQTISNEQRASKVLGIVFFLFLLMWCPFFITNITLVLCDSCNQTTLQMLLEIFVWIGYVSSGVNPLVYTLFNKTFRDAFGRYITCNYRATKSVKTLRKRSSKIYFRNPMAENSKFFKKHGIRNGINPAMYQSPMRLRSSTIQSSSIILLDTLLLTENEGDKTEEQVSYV
5-hydroxytryptamine receptor 7, sequence (P34969 whole entry): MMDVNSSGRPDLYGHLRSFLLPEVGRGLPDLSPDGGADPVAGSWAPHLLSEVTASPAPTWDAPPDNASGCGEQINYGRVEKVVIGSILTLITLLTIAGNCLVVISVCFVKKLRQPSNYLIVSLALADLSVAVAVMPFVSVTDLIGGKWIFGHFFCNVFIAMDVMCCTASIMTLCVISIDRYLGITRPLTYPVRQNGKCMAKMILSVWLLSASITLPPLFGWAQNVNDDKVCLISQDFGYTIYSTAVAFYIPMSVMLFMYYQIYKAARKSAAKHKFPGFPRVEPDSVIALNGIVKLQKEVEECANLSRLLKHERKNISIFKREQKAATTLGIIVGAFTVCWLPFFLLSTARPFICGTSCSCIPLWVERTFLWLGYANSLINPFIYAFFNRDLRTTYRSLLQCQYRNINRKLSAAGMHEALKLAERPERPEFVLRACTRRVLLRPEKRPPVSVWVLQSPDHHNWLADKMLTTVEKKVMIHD
5-hydroxytryptamine receptor 1E, sequence (P28566 whole entry): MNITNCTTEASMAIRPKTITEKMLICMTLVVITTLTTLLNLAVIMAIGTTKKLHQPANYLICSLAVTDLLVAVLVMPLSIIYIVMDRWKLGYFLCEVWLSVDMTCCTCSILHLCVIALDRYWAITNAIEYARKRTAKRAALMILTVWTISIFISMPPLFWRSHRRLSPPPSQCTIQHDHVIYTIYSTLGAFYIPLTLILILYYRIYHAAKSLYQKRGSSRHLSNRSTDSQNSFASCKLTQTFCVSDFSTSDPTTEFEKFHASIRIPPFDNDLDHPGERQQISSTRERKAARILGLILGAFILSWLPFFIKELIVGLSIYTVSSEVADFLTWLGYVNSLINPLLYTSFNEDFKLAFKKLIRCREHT
5-hydroxytryptamine receptor 2A, sequence (P28223 whole entry): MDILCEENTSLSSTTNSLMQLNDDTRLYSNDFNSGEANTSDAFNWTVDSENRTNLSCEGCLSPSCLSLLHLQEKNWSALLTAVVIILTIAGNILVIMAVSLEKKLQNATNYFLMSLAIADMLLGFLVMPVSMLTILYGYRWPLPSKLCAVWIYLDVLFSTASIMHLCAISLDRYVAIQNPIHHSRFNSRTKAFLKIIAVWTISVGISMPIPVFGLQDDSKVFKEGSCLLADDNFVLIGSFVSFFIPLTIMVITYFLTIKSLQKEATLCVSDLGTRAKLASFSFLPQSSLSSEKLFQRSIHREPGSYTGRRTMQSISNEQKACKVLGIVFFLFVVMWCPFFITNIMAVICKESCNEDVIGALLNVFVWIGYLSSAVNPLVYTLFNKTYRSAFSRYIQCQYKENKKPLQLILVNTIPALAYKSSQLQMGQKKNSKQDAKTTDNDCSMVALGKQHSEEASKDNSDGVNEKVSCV
5-hydroxytryptamine receptor 1B, sequence (P28222 whole entry): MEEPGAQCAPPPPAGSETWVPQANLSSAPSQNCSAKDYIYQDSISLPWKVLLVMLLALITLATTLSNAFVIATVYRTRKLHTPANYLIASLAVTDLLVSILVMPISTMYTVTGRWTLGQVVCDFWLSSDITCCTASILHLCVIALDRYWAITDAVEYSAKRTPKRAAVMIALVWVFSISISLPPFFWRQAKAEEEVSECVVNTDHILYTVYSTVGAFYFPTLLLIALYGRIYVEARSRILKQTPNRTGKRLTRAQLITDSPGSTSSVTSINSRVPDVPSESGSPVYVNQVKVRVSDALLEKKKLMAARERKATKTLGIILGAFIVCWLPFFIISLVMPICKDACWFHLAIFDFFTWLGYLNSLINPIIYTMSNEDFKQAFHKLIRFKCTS
5-hydroxytryptamine receptor 6, sequence (P50406 whole entry): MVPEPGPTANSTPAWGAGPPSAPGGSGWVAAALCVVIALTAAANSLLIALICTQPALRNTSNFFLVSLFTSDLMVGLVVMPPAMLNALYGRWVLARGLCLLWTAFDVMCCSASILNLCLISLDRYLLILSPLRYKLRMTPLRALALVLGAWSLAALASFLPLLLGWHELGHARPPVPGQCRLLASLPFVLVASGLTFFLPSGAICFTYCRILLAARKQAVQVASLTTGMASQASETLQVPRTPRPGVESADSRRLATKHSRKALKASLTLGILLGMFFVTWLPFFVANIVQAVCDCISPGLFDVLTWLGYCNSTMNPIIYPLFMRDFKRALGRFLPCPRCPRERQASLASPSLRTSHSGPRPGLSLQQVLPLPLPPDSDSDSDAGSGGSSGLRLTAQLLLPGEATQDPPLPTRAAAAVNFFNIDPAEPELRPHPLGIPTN
5-hydroxytryptamine receptor 1D, sequence (P28221 whole entry): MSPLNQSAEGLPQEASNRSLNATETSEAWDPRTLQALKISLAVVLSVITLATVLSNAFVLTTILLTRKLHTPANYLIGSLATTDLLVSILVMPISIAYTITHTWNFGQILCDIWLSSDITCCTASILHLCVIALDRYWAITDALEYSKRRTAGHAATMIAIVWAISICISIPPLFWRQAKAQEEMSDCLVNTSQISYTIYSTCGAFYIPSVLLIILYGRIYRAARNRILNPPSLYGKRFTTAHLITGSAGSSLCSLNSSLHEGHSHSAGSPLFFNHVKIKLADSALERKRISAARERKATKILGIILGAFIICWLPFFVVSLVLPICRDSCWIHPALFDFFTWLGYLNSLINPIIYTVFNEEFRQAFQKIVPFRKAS

For `OC(CN1CCN(c2cccc(Cl)c2)CC1)C(c1ccccc1)c1ccccc1` (stereo not drawn), the Ki in [1] is 251 nM; in [2] it was 1260 nM; in test [3], 794 nM and 1260 nM; in test [4], 12.6 nM and 7.94 nM; in [5] it was 39.8 nM; in test [6], 501 nM. The Ki in test [7] came out at 6310 nM; in test [8], 1000 nM; in test [9], 631 nM.
As for `COc1ccc(NC(=O)c2ccc(-c3ccc(-c4noc(C)n4)cc3C)cc2)cc1OCCN(C)C` [CAS_3292447], the Ki is 501 nM in test [10]; 50.1 nM in [1]; 3160 nM in test [2]; 1 nM and 7.94 nM in [3]; 25.1 nM and 12.6 nM in [4]; 1580 nM in test [5]. The Ki in test [6] is over 10000 nM; in test [7], 1000 nM; in [8] it was 1000 nM; in test [9], 158 nM.
Consider `COc1ccc(NC(=O)c2ccc(-c3ccc(-c4noc(C)n4)cc3C)cc2)cc1N1CCN(C)CC1` [SMR001230745], for which the Ki in test [10] is 63.1 nM; in test [1] it was 15.8 nM; in [2], 1580 nM; in test [3] it was 1 nM and 7.94 nM; in [5], 631 nM; in test [6] it was 631 nM. In addition, the Ki in test [7] is 3980 nM; in test [8], 398 nM; in [9] it was 100 nM.

What is called Ki is the dissociation constant of the complex between target and ligand, obtained from inhibition or displacement. A low value points to a stronger hold on the target.
